# Paper PMC6278385, “Preclinical Pharmacokinetics of C118P, a Novel Prodrug of Microtubules Inhibitor and Its Metabolite C118 in Mice, Rats, and Dogs” (Molecules, 2018)
# Where two headings read alike, the source gives them in different places.
# Assays:
# [1] = Plasma protein binding by ultrafiltration; format: in vitro ADME; conditions: pooled plasma, human plasma, read-out: fu (fraction unbound)
# Experimental: (§1) Both C118P and C118 were stable in the plasma with EDTA as anticoagulant. The non-specific binding to the ultrafilter membrane was negligible. The extent of plasma protein binding was reported as a fraction unbound (fu, %) value which was calculated using the formula fu = PF/TC × 100%, where TC is test compound (C118P or C118) concentration in sample before ultrafiltration, and PF is the test compound concentration in the ultrafiltrate (Table 1).
# (§2) Plasma protein binding of C118P and C118 were determined by ultrafiltration at four concentrations (C118P: 400, 4000, 40,000, and 400,000 ng/mL, C118: 20, 200, 2000, and 20,000 ng/mL) in pooled plasma from Sprague-Dawley rats, beagle dogs, and humans. Stock solutions of C118P and C118 dissolved in methanol were diluted with blank plasma to achieve the test concentrations (the methanol volume is less than 10% of the plasma). The plasma was incubated for 1 h in a water bath at 37 °C. The total concentration of C118P and C118 of spiked plasma (TC) was analyzed by previously described methods. Ultrafiltration was performed with activated high speed centrifugal tubes (Millipore, Burlington, MA, USA). Plasma samples (0.4 mL) were added to the upper layer of the high speed centrifugal tubes, and then centrifuged at 12,000 g for 10 min. The concentration of unbound C118P and C118 in filtrate (PF) was similarly determined by the previously described methods. The percentage of free fraction (fu) of C118P and C118 was calculated as follows: fu = (PF/TC) × 100%.
# [2] = PK in dogs after i.v. C118P; format: in vivo, beagle dogs; conditions: both sexes, beagle, dog, plasma; for concentration at 2 min: intravenous, read-out: C2min; for concentration at 2 min / AUC(0-inf) / half-life: dogs, n = 6
# Experimental: The beagle dogs were purchased from Nanjing Ya Dong experimental animal research center. Twelve beagle dogs with half males and half females were divided randomly into two groups. C118P was dissolved in saline to different concentrations for intravenous administration. After fasting overnight with free access to water, the dogs were administered a single intravenous dose of 1 or 3 mg/kg C118P. After a one-week wash-out period, the group of 1 mg/kg were administered another single intravenous dose of 6 mg/kg C118P. Blood samples (approximately 1 mL) were collected in EDTA-coated tubes at times of 0, 2, 5, 10, 20, 40 min, 1, 2, 4, 8, 12 and 24 h. Plasma was prepared by centrifugation at 8000 rpm for 5 min, and the plasma samples were then prepared and determined by the method described above.
# (§3) The area under the plasma-concentration-versus-time curve from 0 to infinite (AUC0-inf), the elimination half-life (t1/2), the systemic plasma clearance (CL) and the volume of distribution (V) were calculated by non-compartmental analysis with WinNonlin software v6.3 (Pharsight Corporation, St. Louis, MO 63144, USA) from the plasma concentration data of C118P and C118, respectively. The instantaneous concentrations after intravenous to rats (C30s) or dogs (C2min) were obtained directly from the observed data.
# [3] = Metabolic stability in liver microsomes; format: in vitro ADME, monkey
# Experimental: The in vitro metabolic stability of C118P and C118 were estimated in mice, rat, dog, monkey, and human liver microsomes (Research Institute for Liver Diseases Co. Ltd (Shanghai, China)). The incubation mixture contains C118P or C118, NADP (1.0 mM), G-6-P (10 mM), PDH (2 units/mL), MgCl2 (10 mM), and liver microsomes (mice, rats, dogs, monkeys, or humans, 1.0 mg protein/mL) in phosphate buffer. A total of 200 μL of the mixture was removed and quenched with 600 μL acetonitrile in an ice bath at 0, 15, 30, 60, 120, and 240 min after the addition of NADPH.
# CLint, in vitro (the in vitro intrinsic clearance, Equation (1)) was calculated from the t1/2 of C118 disappearance, where Cprotein is the protein concentration during the incubation, and t1/2 was determined by the slope (k) of the log-linear regression analysis of the concentration versus time profiles; thus, t1/2 = ln2/k. […] The in vivo hepatic clearance (CLH, Equation (3)) was then calculated by using CLint and hepatic blood flow, Q ([…] mL·min^−1·kg^−1 in rats, dogs, monkey, and humans, respectively), in the well-stirred liver model disregarding all binding. The hepatic extraction ratio was calculated as CLH divided by Q. CLint, in vitro = (0.693/t1/2) × (1/Cprotein)(1) CLint = CLint, in vitro × (mg protein/g liver weight) × (gliver weight/kg body weight)(2) CLH = (Q × CLint)/(Q + CLint)(3)
# [4] = PK in rats after i.v. C118P; format: in vivo, SD rats; conditions: both sexes, rat, plasma; for concentration at 30 s: intravenous, read-out: C2min (C30s for Rat); for concentration at 30 s / AUC(0-inf) / half-life: rats, n = 6
# Experimental: The SD rats were supplied by the medical animal experiment center of Chinese People’s Liberation Army Nanjing military region. Twenty-four rats (210–300 g) with half males and half females were divided randomly into four groups. C118P was dissolved in saline to achieve different concentrations for intravenous administration. After fasting overnight, the rats were administered with a single intravenous dose of 5, 10, 20, or 50 mg/kg C118P. Blood samples (approximately 200 μL) were collected in EDTA-coated tubes pre-dose (0), and 30s, 2, 5, 10, 20, 40 min, 1, 2, 4, 8, 12 and 24 h post dose. Plasma was prepared by centrifugation at 8000 rpm for 5 min, and the plasma samples were then prepared and determined by the method described above.
# as §3
# [5] = Plasma protein binding by ultrafiltration; format: in vitro ADME, beagle dogs; conditions: beagle, pooled plasma, dog plasma, read-out: fu (fraction unbound)
# Experimental: as §1, §2
# [6] = Sprague-Dawley, iv, i.v. C118P 10 mg/kg
smiles,measurement,setting,value
COc1cc(OC)cc(-c2nc[nH]c2-c2ccc(OC)c(O)c2)c1 [C118],"fraction unbound at 1 h, 200 ng/mL",[1]; C118 200 ng/mL,0.028 ± 0.002
same,"fraction unbound at 1 h, 2000 ng/mL",[1]; C118 2000 ng/mL,0.047 ± 0.002
same,"fraction unbound at 1 h, 20000 ng/mL","[1]; C118 20,000 ng/mL",0.038 ± 0.002
same,concentration at 2 min,[2]; i.v. C118P 1 mg/kg,252 ± 70.5 ng/mL
same,concentration at 2 min,[2]; i.v. C118P 3 mg/kg,861 ± 259 ng/mL
same,concentration at 2 min,[2]; i.v. C118P 6 mg/kg,1700 ± 509 ng/mL
same,AUC(0-inf),"[2]; iv, i.v. C118P 1 mg/kg",214 ± 79 ng·h/mL
same,half-life,"[2]; iv, i.v. C118P 1 mg/kg",29.4 ± 10.8 min
same,AUC(0-inf),"[2]; iv, i.v. C118P 3 mg/kg",910 ± 295 ng·h/mL
same,half-life,"[2]; iv, i.v. C118P 3 mg/kg",63 ± 16.2 min
same,AUC(0-inf),"[2]; iv, i.v. C118P 6 mg/kg",1830 ± 320 ng·h/mL
same,half-life,"[2]; iv, i.v. C118P 6 mg/kg",50.4 ± 15 min
same,clearance,"[2]; iv, in vivo, compared with extrapolated CLH, read-out: Observed CL",54 mL/min/kg
same,"CLint, in vitro",[3]; monkey liver microsomes,318.6 μL·min^−1·mg^−1 Protein
same,half-life,"[3]; monkey liver microsomes, 1.0 mg protein/mL, C118 disappearance",2.2 min
same,CLint,"[3]; monkey, scaled from CLint, in vitro",252.8 mL/min/kg
same,Extrapolated CLH,"[3]; monkey, well-stirred liver model",37.5 mL/min/kg
same,concentration at 30 s,"[4]; SD, i.v. C118P 5 mg/kg",1580 ± 318 ng/mL
same,concentration at 30 s,"[4]; SD, i.v. C118P 20 mg/kg",7720 ± 2010 ng/mL
same,concentration at 30 s,"[4]; SD, i.v. C118P 50 mg/kg",20600 ng/mL
same,AUC(0-inf),"[4]; SD, iv, i.v. C118P 5 mg/kg",741 ± 63.2 ng·h/mL
same,half-life,"[4]; SD, iv, i.v. C118P 5 mg/kg",31.2 ± 6 min
same,AUC(0-inf),"[4]; SD, iv, i.v. C118P 20 mg/kg",3750 ± 592 ng·h/mL
same,half-life,"[4]; SD, iv, i.v. C118P 20 mg/kg",36 ± 3.6 min
same,AUC(0-inf),"[4]; SD, iv, i.v. C118P 50 mg/kg",9720 ± 1300 ng·h/mL
same,half-life,"[4]; SD, iv, i.v. C118P 50 mg/kg",149 ± 75.6 min
same,clearance,"[4]; Sprague-Dawley, iv, in vivo, compared with extrapolated CLH, read-out: Observed CL",62.9 mL/min/kg
same,concentration at 30 s,"[4]; Sprague-Dawley, i.v. C118P 10 mg/kg",3720 ± 974 ng/mL
same,AUC(0-inf),[4]; [6],1600 ± 193 ng·h/mL
same,half-life,[4]; [6],33 ± 7.8 min
same,"fraction unbound at 1 h, 200 ng/mL",[5]; C118 200 ng/mL,0.058 ± 0.002
same,"fraction unbound at 1 h, 2000 ng/mL",[5]; C118 2000 ng/mL,0.062 ± 0.004
same,"fraction unbound at 1 h, 20000 ng/mL","[5]; C118 20,000 ng/mL",0.054 ± 0.004
